In patent US9499535B2, “Kinase inhibitors” (ORIGENIS GMBH, priority 2011, dated 2016):

Key:
LRRK2 = LRRK2 (Homo sapiens, UniProt Q5S007); experiment: LRRK2 assay (LanthaScreen Eu Kinase Binding Assay); conditions: 5 nM LRRK2, 10 nM tracer 236, RT 1 h; read-out: LRRK2 Activites: IC50
Method in brief: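 Kinase binding was detected by europium anti-tag antibody FRET with a competing tracer, so inhibitor binding lowers the FRET signal. IC50 came from a variable-slope sigmoidal fit of emission ratio against inhibitor concentration.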

MYLK = MYLK (Homo sapiens, UniProt Q15746); experiment: MYLK assay (LanthaScreen Eu Kinase Binding Assay); conditions: 5 nM MYLK, 30 nM tracer 236, RT 1 h; read-out: MYLK Activites: IC50
Method: In the assay LanthaScreen™ Eu Kinase Binding Assay by Invitrogen Corporation (Carlsbad) the effect of invention of a compound on the phosphorylation is determined by measurement of fluorescence intensity emission ratio based on the binding and displacement of a proprietary, Alexa Fluor® 647-labeled, ATP-competitive kinase inhibitor scaffold (kinase tracer) to the kinase of interest as described above.
To the wells of an 384 well small volume plate (Greiner, Frickenhausen) are added (i) the compound under test in 5% DMSO/distilled water (5 μl), (ii) 5 μl of the kinase antibody mixture resulting in a final concentration 5 nM MYLK, 2 nM EU-Anti-GST antibody in 1× kinase buffer A. The reaction was started with addition of (iii) 5 μl resulting in a final concentration of 30 nM tracer 236. The assay plate was incubated at RT for 1 h and fluorescence intensitiy readings were collected using a TECAN M1000 at two wavelengthes of λex 340/λem 615 nm and λex 340/λem 665 nm with a delay time of 100 μs and an integration time of 200 μs after 60 minutes. The emission ratio was calculated by division of the acceptor/tracer emission ([…]) by the antibody/donor emission ([…]). The inhibitor concentration was plotted versus the emission ratio to determine the IC50 using XLFit 5.0 (IDBS, Guildford) to fit to a sigmoidal dose response curve with a variable slope.

SYK kinase = biological target: T1, SYK kinase (Homo sapiens, UniProt P43405); experiment: SYK assay (OMNIA Kinase Assay, Invitrogen); assay type: biochemical; conditions: apparent Ki calculated from the IC50 using the Cheng-Prusoff equation; 1 mM ATP, 10 μM Peptide Substrate; read-out: SYK Activities: Ki
T1 construct: purchased Invitrogen, Carlsbad
Method in brief: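 Continuous SOX-fluorescence (Omnia) readout of Tyr 7 peptide (10 μM) phosphorylation with 1 mM ATP and 0.2 mM DTT at 30° C, started by SYK addition. Fluorescence (λex 360/λem 485 nm) was read every 30 s for 30 min. IC50 from velocity vs concentration; apparent Ki via Cheng-Prusoff.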

MYLK, sequence (Q15746 whole entry): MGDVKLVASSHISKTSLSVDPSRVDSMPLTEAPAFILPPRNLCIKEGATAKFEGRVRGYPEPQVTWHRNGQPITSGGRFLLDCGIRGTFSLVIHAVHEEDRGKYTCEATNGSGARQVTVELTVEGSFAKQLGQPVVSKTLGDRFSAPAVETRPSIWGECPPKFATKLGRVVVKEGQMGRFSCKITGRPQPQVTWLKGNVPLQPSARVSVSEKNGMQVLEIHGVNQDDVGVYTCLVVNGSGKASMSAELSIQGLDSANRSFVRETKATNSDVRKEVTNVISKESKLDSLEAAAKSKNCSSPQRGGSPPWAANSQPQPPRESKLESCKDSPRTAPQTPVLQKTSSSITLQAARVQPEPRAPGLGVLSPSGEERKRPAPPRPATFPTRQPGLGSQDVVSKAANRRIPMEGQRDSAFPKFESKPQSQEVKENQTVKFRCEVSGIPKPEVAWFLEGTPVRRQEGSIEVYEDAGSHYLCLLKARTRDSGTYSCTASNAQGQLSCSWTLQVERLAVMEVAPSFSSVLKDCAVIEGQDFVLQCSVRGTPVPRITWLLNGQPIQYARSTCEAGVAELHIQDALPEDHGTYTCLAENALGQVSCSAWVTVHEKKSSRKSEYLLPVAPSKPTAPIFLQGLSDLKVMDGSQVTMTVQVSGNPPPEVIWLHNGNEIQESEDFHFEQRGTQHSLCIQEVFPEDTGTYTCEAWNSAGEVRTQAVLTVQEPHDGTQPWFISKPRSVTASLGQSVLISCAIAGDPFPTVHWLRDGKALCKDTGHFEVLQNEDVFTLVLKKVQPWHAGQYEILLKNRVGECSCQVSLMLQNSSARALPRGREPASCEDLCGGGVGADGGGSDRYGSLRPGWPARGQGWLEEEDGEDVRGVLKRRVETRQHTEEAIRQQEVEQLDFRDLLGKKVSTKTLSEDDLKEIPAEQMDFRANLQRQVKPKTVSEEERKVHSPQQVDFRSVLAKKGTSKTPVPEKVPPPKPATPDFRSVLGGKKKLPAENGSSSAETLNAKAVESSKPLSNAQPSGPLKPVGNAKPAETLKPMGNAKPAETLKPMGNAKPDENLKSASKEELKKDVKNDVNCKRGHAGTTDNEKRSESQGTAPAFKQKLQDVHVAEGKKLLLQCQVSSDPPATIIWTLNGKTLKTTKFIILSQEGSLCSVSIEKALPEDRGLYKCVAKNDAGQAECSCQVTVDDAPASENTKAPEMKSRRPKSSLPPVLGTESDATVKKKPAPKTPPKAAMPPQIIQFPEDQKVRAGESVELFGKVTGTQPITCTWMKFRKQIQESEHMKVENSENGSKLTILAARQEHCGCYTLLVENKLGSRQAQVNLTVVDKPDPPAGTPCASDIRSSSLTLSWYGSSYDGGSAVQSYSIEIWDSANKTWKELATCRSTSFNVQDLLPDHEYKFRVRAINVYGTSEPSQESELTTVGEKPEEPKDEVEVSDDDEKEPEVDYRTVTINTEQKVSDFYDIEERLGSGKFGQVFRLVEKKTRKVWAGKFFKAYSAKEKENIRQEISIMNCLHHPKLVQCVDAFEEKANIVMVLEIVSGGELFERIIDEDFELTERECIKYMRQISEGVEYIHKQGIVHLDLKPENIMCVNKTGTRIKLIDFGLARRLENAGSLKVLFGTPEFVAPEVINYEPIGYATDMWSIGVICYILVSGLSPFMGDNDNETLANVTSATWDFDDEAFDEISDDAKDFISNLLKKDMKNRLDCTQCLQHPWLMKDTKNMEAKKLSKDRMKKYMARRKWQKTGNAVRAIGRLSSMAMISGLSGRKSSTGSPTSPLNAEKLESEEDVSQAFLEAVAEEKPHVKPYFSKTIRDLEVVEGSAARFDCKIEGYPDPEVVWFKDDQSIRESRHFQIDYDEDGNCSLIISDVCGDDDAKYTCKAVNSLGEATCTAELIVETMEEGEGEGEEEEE
LRRK2, sequence (Q5S007 970-2527 limits assumed): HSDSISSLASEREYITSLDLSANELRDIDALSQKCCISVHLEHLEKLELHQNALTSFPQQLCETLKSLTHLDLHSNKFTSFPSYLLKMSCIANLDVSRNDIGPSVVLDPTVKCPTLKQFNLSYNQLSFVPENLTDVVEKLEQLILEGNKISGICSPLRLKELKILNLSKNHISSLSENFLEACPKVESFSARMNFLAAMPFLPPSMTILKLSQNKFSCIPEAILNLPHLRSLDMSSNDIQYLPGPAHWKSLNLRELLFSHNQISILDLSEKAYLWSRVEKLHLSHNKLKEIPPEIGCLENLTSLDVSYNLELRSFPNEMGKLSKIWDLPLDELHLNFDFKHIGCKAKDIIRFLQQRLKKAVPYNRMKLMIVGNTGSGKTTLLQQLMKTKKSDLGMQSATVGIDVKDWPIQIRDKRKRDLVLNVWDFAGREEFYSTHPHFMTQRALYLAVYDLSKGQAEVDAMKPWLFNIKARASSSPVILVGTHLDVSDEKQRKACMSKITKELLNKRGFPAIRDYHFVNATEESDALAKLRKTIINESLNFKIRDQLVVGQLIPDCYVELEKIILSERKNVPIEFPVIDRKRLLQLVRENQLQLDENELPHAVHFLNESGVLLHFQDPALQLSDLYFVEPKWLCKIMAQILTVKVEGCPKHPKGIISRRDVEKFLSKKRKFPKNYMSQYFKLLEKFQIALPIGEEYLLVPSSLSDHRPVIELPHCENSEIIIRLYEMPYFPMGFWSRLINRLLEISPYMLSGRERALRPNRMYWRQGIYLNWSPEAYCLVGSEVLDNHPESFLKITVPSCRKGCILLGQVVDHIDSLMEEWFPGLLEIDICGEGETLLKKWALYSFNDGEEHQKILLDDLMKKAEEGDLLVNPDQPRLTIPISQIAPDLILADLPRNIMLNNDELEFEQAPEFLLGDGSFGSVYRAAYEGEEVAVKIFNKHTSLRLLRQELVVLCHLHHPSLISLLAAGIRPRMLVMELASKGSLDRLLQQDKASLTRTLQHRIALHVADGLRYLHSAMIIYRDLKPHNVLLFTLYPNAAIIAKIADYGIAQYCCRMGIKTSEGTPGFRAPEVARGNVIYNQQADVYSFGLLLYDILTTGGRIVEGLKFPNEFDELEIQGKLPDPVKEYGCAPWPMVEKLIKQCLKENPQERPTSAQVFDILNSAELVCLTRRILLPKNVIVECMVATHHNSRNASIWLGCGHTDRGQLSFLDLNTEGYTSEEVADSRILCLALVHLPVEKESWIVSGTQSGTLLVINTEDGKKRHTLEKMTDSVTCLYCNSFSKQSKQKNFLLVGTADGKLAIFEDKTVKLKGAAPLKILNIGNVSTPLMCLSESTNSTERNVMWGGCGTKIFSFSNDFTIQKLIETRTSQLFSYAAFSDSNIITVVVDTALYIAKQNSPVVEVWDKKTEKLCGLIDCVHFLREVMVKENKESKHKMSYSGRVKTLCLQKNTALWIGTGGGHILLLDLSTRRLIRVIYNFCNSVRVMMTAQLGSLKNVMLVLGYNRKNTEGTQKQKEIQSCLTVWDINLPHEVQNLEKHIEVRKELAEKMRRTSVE

Row | SMILES | IC50 (LRRK2) | IC50 (MYLK) | Ki (SYK kinase)
1 | COc1cccc2c1nc(Nc1ccc(CN(C)C)cc1)c1n[nH]cc12 [Example #233, (4-Dimethylaminomethyl-phenyl)-(6-methoxy-2H-pyrazolo[3,4-c]quinolin-4-yl)-amine] |  | < 5 µM | < 10 nM
2 | COc1cccc2c1nc(Nc1ccccc1)c1n[nH]cc12 [Example #261, (6-Methoxy-2H-pyrazolo[3,4-c]quinolin-4-yl)-phenyl-amine] |  | < 5 µM | 10 to 100 nM
3 | COc1ccc2c(c1)nc(Nc1ccc3[nH]cnc3c1)c1n[nH]cc12 [Example #263, (1H-Benzoimidazol-5-yl)-(7-methoxy-2H-pyrazolo[3,4-c]quinolin-4-yl)-amine] |  | < 5 µM | < 10 nM
4 | COc1cccc2c1nc(Nc1ccc(CN3CCN(C)CC3)cc1)c1n[nH]cc12 [Example #278, (6-Methoxy-2H-pyrazolo[3,4-c]quinolin-4-yl)-[4-(4-methyl-piperazin-1-ylmethyl)-phenyl]-amine] |  | < 5 µM | 100 to 1000 nM
5 | COc1ccc2nc(Nc3ccc(N4CCS(=O)(=O)CC4)cc3)c3n[nH]cc3c2c1 [Example #292, 4-(4-((8-methoxy-2H-pyrazolo[3,4-c]quinolin-4-yl)amino)phenyl)thiomorpholine 1,1-dioxide] |  | < 5 µM | < 10 nM
6 | COc1ccc2nc(Nc3cccc(S(=O)(=O)N4CCOCC4)c3)c3n[nH]cc3c2c1 [Example #349, 8-methoxy-N-(3-(morpholinosulfonyl)phenyl)-2H-pyrazolo[3,4-c]quinolin-4-amine] |  | < 5 µM | 100 to 1000 nM
7 | COc1ccc2nc(Nc3cccc(S(=O)(=O)C(F)(F)F)c3)c3n[nH]cc3c2c1 [Example #350, 8-methoxy-N-(3-((trifluoromethyl)sulfonyl)phenyl)-2H-pyrazolo[3,4-c]quinolin-4-amine] |  | < 5 µM | 100 to 1000 nM

Next, values leading:

Row | IC50 (LRRK2) | IC50 (MYLK) | Ki (SYK kinase) | SMILES
8 | 100 to 1000 nM | < 5 µM |  | COc1ccc2nc(Nc3cccc(C(C)=O)c3)c3n[nH]cc3c2c1 [Example #127, 1-[3-(8-Methoxy-2H-pyrazolo[3,4-c]quinolin-4-ylamino)-phenyl]-ethanone]
9 |  | < 5 µM | 100 to 1000 nM | COc1ccc2nc(Nc3cccc(C(=O)O)c3)c3n[nH]cc3c2c1 [Example #287, 3-((8-methoxy-2H-pyrazolo[3,4-c]quinolin-4-yl)amino)benzoic acid]
10 |  | < 5 µM | < 10 nM | COc1ccc2nc(Nc3ccc4c(c3)NC(=O)CO4)c3[nH]ncc3c2c1 [Example #291, 6-((8-methoxy-2H-pyrazolo[3,4-c]quinolin-4-yl)amino)-2H-benzo[b][1,4]oxazin-3(4H)-one]
11 |  | < 5 µM | 10 to 100 nM | CN1CCN(c2ccc(Nc3nc4ccc(F)cc4c4cn[nH]c34)cc2)CC1 [Example #326, 8-fluoro-N-(4-(4-methylpiperazin-1-yl)phenyl)-3H-pyrazolo[3,4-c]quinolin-4-amine]
12 |  | < 5 µM | 100 to 1000 nM | COc1ccc(Nc2nc3ccc(F)cc3c3cn[nH]c23)cc1OC [Example #327, N-(3,4-dimethoxyphenyl)-8-fluoro-3H-pyrazolo[3,4-c]quinolin-4-amine]
13 |  | < 5 µM | 10 to 100 nM | CN1CCN(c2ccc(Nc3nc4cc(F)ccc4c4cn[nH]c34)cc2)CC1 [Example #337, 7-fluoro-N-(4-(4-methylpiperazin-1-yl)phenyl)-3H-pyrazolo[3,4-c]quinolin-4-amine]
14 |  | < 5 µM | 100 to 1000 nM | COc1cc(Nc2nc3ccc(OC)cc3c3c[nH]nc23)cc(OC)c1 [Example #341, N-(3,5-dimethoxyphenyl)-8-methoxy-2H-pyrazolo[3,4-c]quinolin-4-amine]
15 |  | < 5 µM | 100 to 1000 nM | COc1ccc(Nc2nc3ccc(I)cc3c3cn[nH]c23)cc1OC [Example #354, N-(3,4-dimethoxyphenyl)-8-iodo-3H-pyrazolo[3,4-c]quinolin-4-amine]
